{"source": "paper PMC9232636", "about": "“Insights into the mechanism of action of the arbitrium communication system in SPbeta phages” (Nature Communications, 2022)", "key": {"AimR^Kat": {"molecular_target": "T1, AimR^Kat (Bacillus subtilis (Katmira prophage), UniProt A0A8I3AZZ2)", "T1 sequence (A0A8I3AZZ2 2-387)": "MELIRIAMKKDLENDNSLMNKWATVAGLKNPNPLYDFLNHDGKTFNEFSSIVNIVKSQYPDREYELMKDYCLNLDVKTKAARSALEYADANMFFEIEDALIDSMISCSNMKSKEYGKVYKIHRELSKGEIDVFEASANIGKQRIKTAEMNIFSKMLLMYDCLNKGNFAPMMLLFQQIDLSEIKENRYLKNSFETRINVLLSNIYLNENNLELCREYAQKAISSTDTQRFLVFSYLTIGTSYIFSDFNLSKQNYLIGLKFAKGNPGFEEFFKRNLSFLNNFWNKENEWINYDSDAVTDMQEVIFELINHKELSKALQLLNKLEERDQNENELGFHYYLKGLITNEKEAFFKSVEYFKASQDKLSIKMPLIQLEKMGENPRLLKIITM", "assay_type": "binding, Katmira phage", "conditions": "for Tm: Supplementary Fig. 5a, peptides at 0.5mM; for effect on Tm / stabilisation (in words): ThermoFluor", "protocol": "The thermal shift assay was conducted in a 7500 Fast Real time PCR System (Applied Biosystems) as previously described. Briefly, samples of 20 μl buffer (20 mM Tris pH 8 and 250 mM NaCl) containing 5× Sypro Orange (Sigma-Aldrich) and 20 μM of protein were loaded in 96-well PCR plates. […] Samples were heated from 25 to 85 °C in steps of one degree. Fluorescent intensity was plotted versus temperature and integrated with GraphPad Prism software using a Boltzmann model to calculate melting temperatures."}, "[1]": {"system": "AimR^Kat-N273A-DNA interaction", "assay": "EMSA, peptide-induced release of AimR^Kat-N273A from its target DNA", "assay_type": "biochemical, Katmira phage", "conditions": "protein preincubated with 0.5 μM peptide 10 min, repeated three times", "protocol": "(§1) AimR binding to its operator and the inhibition induced by the arbitrium peptide was analysed by native polyacrylamide and agarose gel electrophoresis. Double strand DNA primer probes were purchased from Macrogen. DNA (10 ng µl^−1) and AimR (from 0.5 μM) protein was mixed in EMSA buffer (50 mM tris pH8, 250 mM NaCl). The samples were incubated for 10 min at room temperature. For peptide inhibition assay, protein was preincubated with 0.5 μM peptide for 10 min before DNA addition. Electrophoresis was then performed in 8% polyacrylamide gels in Tris-Borate-EDTA (TBE) buffer for about 150 min at 100 V at 4 °C."}, "AimR^Kat-N273A [2]": {"molecular_target": "T2, AimR^Kat-N273A (Bacillus subtilis, UniProt A0A8I3AZZ2, N274A)", "assay": "Thermal shift assay of AimR^Kat-N273A with peptides", "assay_type": "binding, Katmira phage", "conditions": "ThermoFluor", "protocol": "The thermal shift assay was conducted in a 7500 Fast Real time PCR System (Applied Biosystems) as previously described. Briefly, samples of 20 μl buffer (20 mM Tris pH 8 and 250 mM NaCl) containing 5× Sypro Orange (Sigma-Aldrich) and 20 μM of protein were loaded in 96-well PCR plates. To calculate the Tm in the presence of the peptide, 0.5 μM of GMPRGA or GIVRGA peptide was added to the mixture. Samples were heated from 25 to 85 °C in steps of one degree. Fluorescent intensity was plotted versus temperature and integrated with GraphPad Prism software using a Boltzmann model to calculate melting temperatures."}, "AimR^SPβ": {"system": "AimR^SPβ", "conditions": "previously reported; cited from earlier work"}, "AimR^Kat-DNA interaction": {"system": "AimR^Kat-DNA interaction", "assay": "EMSA, peptide-induced release of AimR^Kat from its DNA operator", "assay_type": "biochemical, Katmira phage", "conditions": "protein preincubated with 0.5 μM peptide 10 min, repeated three times", "protocol": "as §1"}, "[3]": {"system": "SPβ ΔaimR prophage complemented with AimR^SPβ", "assay": "Prophage induction and phage titering, SPβ ΔaimR complemented with AimR^SPβ", "assay_type": "cell-based, phage SPβ in B. subtilis", "conditions": "for phage titer: JP 20223, 5 μM peptide, MC induced", "protocol": "For induction, an overnight culture was diluted 1/100 in LB media supplemented with 0.1 mM MnCl2 and 5 mM MgCl2 and then grown at 37 °C with 210 rpm shaking until reaching absorbance 0.2 at 600 nm. This step was repeated twice to ensure the cells were in exponential growth. After the second growth, Mitomycin C (MC) at 0.5 μg ml^−1 was added to the culture. Where experiments were performed to test the effect of peptide on phage titre, 5 μM of the relevant peptide was added before starting the second growth to ensure the bacteria cells were able to incorporate the peptide. The induced cultures were incubated at 30 °C with 80 rpm shaking for 4 h and then left overnight at room temperature. Following lysis, samples were filtered using 0.2 μm filters and lysates were stored at 4 °C until use.\nThe number of phage particles contained in the phage lysate of interest was quantified by a titering assay. An overnight culture of the relevant recipient strain (normally B. subtilis ∆6 or with the corresponding plasmid) was diluted 1/100 in LB supplemented with 0.1 mM MnCl2 and 5 mM MgCl2 and then grown at 37 °C with 210 rpm shaking until reaching absorbance 0.2 at 600 nm. When required 1 mM IPTG was added. Then, 100 μl of recipient bacteria was infected with 100 μl of serial dilutions of phage lysate in phage buffer (PhB; 1 mM NaCl, 0.05 M Tris pH 7.8, 0.1 mM MnCl2, 5 mM MgCl2) at room temperature for 10 min and 3 ml of phage top agar (LB media supplemented with 0.1 mM MnCl2 and 5 mM MgCl2 and 0.7 % agar) at 55 °C was added to the culture-phage mix and immediately poured over phage base agar plates (LB media supplemented with 0.1 mM MnCl2 and 5 mM MgCl2 and 1.5% agar). Plaques were counted after overnight growth at 37 °C temperature and photographed."}, "AimR^Kat-N273A [4]": {"molecular_target": "T2, AimR^Kat-N273A", "assay": "ITC, AimP binding to AimR^Kat-N273A", "design": "species or system Katmira phage", "conditions": "25 °C, 25 mM Tris-HCl pH 8, 250 mM NaCl", "protocol": "ITC assays were carried out in a Nano ITC Low Volume (TA instruments). In the assays, proteins (AimR^Kat or AimR^Kat-N273A) and peptides concentration were 10 and 50 μM, respectively, and both were diluted in buffer 25 mM Tris-HCl pH 8, 250 mM NaCl. The experiments were performed at 25 °C. The data obtained was integrated, corrected and analysed using the NanoAnalyze software (TA Instruments) with a single-site or two-site binding models."}}, "note": "“Also recorded” adds a separate entry of the source."}
{"substance": "GMPRGA [AimP^SPβ, the SPβ AimP peptide]", "values": [{"measurement": "Tm", "setting": "AimR^Kat", "value": "43 ºC"}, {"measurement": "effect on Tm / stabilisation (in words)", "setting": "AimR^Kat", "value": "did not have any effect"}, {"measurement": "release of AimR^Kat-N273A from DNA", "setting": "[1]", "value": "induce DNA releases for the N273A mutant form of AimR^Kat; also recorded: able to induce the release of AimR^Kat-N273A from its target DNA"}, {"measurement": "stabilisation / binding capacity (in words)", "setting": "AimR^Kat-N273A [2]", "value": "stabilises AimR^Kat-N273A"}, {"measurement": "increase of Tm", "setting": "AimR^SPβ", "value": 10, "unit": "°C"}, {"measurement": "release of AimR^Kat from DNA", "setting": "AimR^Kat-DNA interaction", "value": "only AimP^Kat for the wt form"}, {"measurement": "release of AimR^Kat from DNA", "setting": "AimR^Kat-DNA interaction; listed as GMPRGA", "value": "neither GMPRGA (AimP^SPβ) nor SAIRGA (the phi3T AimP peptide, AimP^Phi) (Fig. 1b) affected AimR^Kat in its ability to recognise its cognate DNA box"}, {"measurement": "phage titer", "setting": "[3]; repeat 1", "value": "7.90E+08", "unit": "pfu/ml"}, {"measurement": "phage titer", "setting": "[3]; repeat 2", "value": "9.60E+07", "unit": "pfu/ml"}, {"measurement": "phage titer", "setting": "[3]; repeat 3", "value": "2.12E+09", "unit": "pfu/ml"}, {"measurement": "phage titer", "setting": "[3]; repeat 4", "value": "6.30E+07", "unit": "pfu/ml"}, {"measurement": "phage titer", "setting": "[3]; repeat 5", "value": "8.90E+07", "unit": "pfu/ml"}, {"measurement": "phage titer", "setting": "[3]; repeat 6", "value": "2.90E+08", "unit": "pfu/ml"}, {"measurement": "phage titer", "setting": "[3]; repeat 7", "value": "7.80E+07", "unit": "pfu/ml"}, {"measurement": "reduction of phage titre", "setting": "[3]; MC 0.5 μg/ml, 5 μM peptide, compared with no peptide", "value": 10, "unit": "times"}]}
{"substance": "SAIRGA [AimP^Phi, the phi3T AimP peptide]", "values": [{"measurement": "Tm", "setting": "AimR^Kat", "value": "43 ºC"}, {"measurement": "effect on Tm / stabilisation (in words)", "setting": "AimR^Kat", "value": "did not have any effect"}, {"measurement": "binding by ITC (in words)", "setting": "AimR^Kat-N273A [4]", "value": "unable to bind"}, {"measurement": "release of AimR^Kat-N273A from DNA", "setting": "[1]", "value": "insensitive"}, {"measurement": "release of AimR^Kat from DNA", "setting": "AimR^Kat-DNA interaction", "value": "insensitive"}, {"measurement": "release of AimR^Kat from DNA", "setting": "AimR^Kat-DNA interaction; listed as SAIRGA", "value": "neither GMPRGA (AimP^SPβ) nor SAIRGA (the phi3T AimP peptide, AimP^Phi) (Fig. 1b) affected AimR^Kat in its ability to recognise its cognate DNA box"}]}
